Experimental data as given in US20090176817A1, “Method of Treatment of Diarrhea-Predominant Irritable Bowel Syndrome in a Subject” (priority 2005, published 2009).

System: diarrhea-predominant IBS subjects
Test: Study S241.3.011: weekly diary questions on adequate relief
Assay type: in vivo, human
Experimental: Study S241.3.011 was a Phase III, double-blind, placebo-controlled, randomized, multinational study to investigate the safety and efficacy of 2 mg TID of cilansetron for a period of 12 weeks followed by a rerandomized, placebo-controlled four-week treatment period, in diarrhea-predominant IBS subjects. The study was conducted in six countries including the US. A total of 2115 subjects consented to participate, and 770 subjects were randomized. A total of 746 subjects were analyzed for efficacy and 755 subjects were analyzed for safety. Diagnosis and main criteria for inclusion were IBS subjects satisfying the Rome I criteria (1992); the diarrhea predominant sub-population of the Rome II criteria; and a minimum abdominal pain/discomfort, stool frequency and consistency determined during the run-in period. Subjects were treated with cilansetron 2 mg tablets given orally TID or matching placebo tablets given orally TID for 12 weeks followed by a rerandomized, placebo-controlled four-week treatment period.
The primary efficacy parameter was the number of months that a subject was a responder for IBS symptoms (abdominal pain, abdominal discomfort, abnormal bowel habits) over the 12-week treatment period. A responder for a month (monthly responder) was defined as a subject who answered the weekly question with “yes” at least twice for that month. The two main secondary efficacy parameters were the monthly responder rates based on the “adequate relief” questions regarding abdominal pain/discomfort and abnormal bowel habits during the 12-week treatment period. The overall response rate and responder rate for the weekly diary questions on adequate relief at each month and all months, the adequate relief rate, the number of subjects with adequate relief by week, daily diary questions, IBS-QOL scores, and the interruption of activities were also assessed. Safety was evaluated by physical examination, ECG, vital signs, laboratory evaluations, concomitant medications, and AEs.
Subjects who were initially randomized to the cilansetron 2 mg TID group and rerandomized to placebo, will be referred to as the C/P treatment group; subjects initially randomized to the placebo group and rerandomized to placebo will be referred to as the P/P treatment group; the P/C and C/C treatment group nomenclature follow the same principle. Of the 591 subjects who completed the three-month treatment period, 576 subjects were rerandomized and thus divided into the following treatment groups: 150 subjects in the C/C treatment group, 140 subjects in the C/P treatment group, 136 subjects in the P/C treatment group, and 150 subjects in the P/P treatment group. Of the 576 subjects rerandomized, a higher percentage of subjects in the C/C treatment group (99%) completed the study compared with the C/P (95%), P/C (93%), and the P/P (95%) treatment groups.
Studies S24 1.3.OO6, S24 1.3.0 1 1, and S24 1.3.009 used the following efficacy measurements: • The subjects answered the following three questions with “yes” or “no” using a phone diary at the end of each week: • a) During the last week, did you experience adequate relief of your IBS symptoms, such as abdominal pain, abdominal discomfort, abnormal bowel habits? • b) During the last week, did you experience adequate relief of your abdominal pain and/or discomfort? • c) During the last week, did you experience adequate relief of your abnormal bowel habits? • The subjects rated the following symptoms using the phone diary at the end of each day: • abdominal pain/discomfort (five-point scale); • stool consistency (seven-point Bristol Stool Scale); • stool frequency (number of bowel movements each day); • urgency (five-point scale); • straining (yes or no); • feeling of incomplete defecation (yes or no); • bloating or feeling of abdominal distension (five-point scale). • In Studies S241 A006 and S241.3.009, subjects completed the IBS-QOL Survey at Baseline (Day 1) and at the end of treatment. […]

[1] = 2 mg TID, monthly LOCF, ITT N = 377
[2] = 2 mg TID, three-month treatment period, monthly LOCF, ITT N = 377
[3] = 2 mg TID, three-month treatment period, observed case, ITT N = 377
[4] = Baseline BMI: <30 kg/m^2, three-month treatment period, monthly LOCF, ITT, 2 mg TID

Cc1nccn1C[C@H]1CCc2c(c3cccc4c3n2CCC4)C1=O [Cilansetron, (R)-(−)-4,5,6,8,9,10-hexahydro-10-[(2-methyl-1H-imidazol-1-yl)methyl]-11H-pyrido-[3,2,1-jk]-carbazol-11-one]
Responders for one month, IBS symptoms (2 mg TID, 3 months): 14%
Responders for one month, abdominal pain/discomfort (2 mg TID, 3 months): 12%
Responders for one month, abnormal bowel habits (2 mg TID, 3 months): 13%
Responders for three months, IBS symptoms (2 mg TID, 3 months): 39%
Responders for three months, abdominal pain/discomfort (2 mg TID, 3 months): 42%
Responders for three months, abnormal bowel habits (2 mg TID, 3 months): 40%
Responders for two months, IBS symptoms (2 mg TID, 3 months): 19%
Responders for two months, abdominal pain/discomfort (2 mg TID, 3 months): 19%
Responders for two months, abnormal bowel habits (2 mg TID, 3 months): 18%
Responders for zero months, IBS symptoms (2 mg TID, 3 months): 28%
Responders for zero months, abdominal pain/discomfort (2 mg TID, 3 months): 27%
Responders for zero months, abnormal bowel habits (2 mg TID, 3 months): 30%
Responder rate, adequate relief of IBS symptoms, Each month of Months 1 to 3 [1]: 148 (39) n (%)
Responder rate, adequate relief of IBS symptoms, Month 1 [1]: 216 (57) n (%)
Responder rate, adequate relief of IBS symptoms, Month 2 [1]: 214 (57) n (%)
Responder rate, adequate relief of IBS symptoms, Month 3 [1]: 208 (55) n (%)
Responder rate, adequate relief of abdominal pain/discomfort, Each month of Months 1 to 3 [1]: 159 (42) n (%)
Responder rate, adequate relief of abdominal pain/discomfort, Month 1 [1]: 217 (58) n (%)
Responder rate, adequate relief of abdominal pain/discomfort, Month 2 [1]: 229 (61) n (%)
Responder rate, adequate relief of abdominal pain/discomfort, Month 3 [1]: 220 (58) n (%)
Responder rate, adequate relief of abnormal bowel habits, Each month of Months 1 to 3 [1]: 149 (40) n (%)
Responder rate, adequate relief of abnormal bowel habits, Month 1 [1]: 214 (57) n (%)
Responder rate, adequate relief of abnormal bowel habits, Month 2 [1]: 209 (55) n (%)
Responder rate, adequate relief of abnormal bowel habits, Month 3 [1]: 206 (55) n (%)
Subjects who were responders for One month, adequate relief of IBS symptoms [2]: 54 (14) n (%)
Subjects who were responders for One month, adequate relief of abdominal pain/discomfort [2]: 45 (12) n (%)
Subjects who were responders for One month, adequate relief of abnormal bowel habits [2]: 50 (13) n (%)
Subjects who were responders for Three months, adequate relief of IBS symptoms [2]: 148 (39) n (%)
Subjects who were responders for Three months, adequate relief of abdominal pain/discomfort [2]: 159 (42) n (%)
Subjects who were responders for Three months, adequate relief of abnormal bowel habits [2]: 149 (40) n (%)
Subjects who were responders for Two months, adequate relief of IBS symptoms [2]: 70 (19) n (%)
Subjects who were responders for Two months, adequate relief of abdominal pain/discomfort [2]: 72 (19) n (%)
Subjects who were responders for Two months, adequate relief of abnormal bowel habits [2]: 66 (18) n (%)
Subjects who were responders for Zero months, adequate relief of IBS symptoms [2]: 105 (28) n (%)
Subjects who were responders for Zero months, adequate relief of abdominal pain/discomfort [2]: 101 (27) n (%)
Subjects who were responders for Zero months, adequate relief of abnormal bowel habits [2]: 112 (30) n (%)
Overall responder rate, adequate relief of IBS symptoms [3]: 206 (55) n (%)
Overall responder rate, adequate relief of abdominal pain/discomfort [3]: 221 (59) n (%)
Overall responder rate, adequate relief of abnormal bowel habits [3]: 203 (54) n (%)
Median adequate relief rate, IBS symptoms (3 months): 0.58
Median adequate relief rate, abdominal pain/discomfort (3 months): 0.58
Median adequate relief rate, abnormal bowel habits (3 months): 0.58
Overall responder rate, IBS symptoms (3 months, observed case, ITT): 55%
Overall responder rate, abdominal pain/discomfort (3 months, observed case, ITT): 59%
Overall responder rate, abnormal bowel habits (3 months, observed case, ITT): 54%
Responder rate, abdominal pain/discomfort (Argentina and Chile): 65%
Number of months a subject was a responder: One month (Abdominal pain/discomfort) [4]: 30 (11) n (%)
Number of months a subject was a responder: One month (Abnormal bowel habits) [4]: 33 (12) n (%)
Number of months a subject was a responder: One month (IBS symptoms) [4]: 38 (14) n (%)
Number of months a subject was a responder: Three months (Abdominal pain/discomfort) [4]: 113 (42) n (%)
Number of months a subject was a responder: Three months (Abnormal bowel habits) [4]: 104 (39) n (%)
Number of months a subject was a responder: Three months (IBS symptoms) [4]: 107 (40) n (%)
Number of months a subject was a responder: Two months (Abdominal pain/discomfort) [4]: 50 (19) n (%)
Number of months a subject was a responder: Two months (Abnormal bowel habits) [4]: 51 (19) n (%)
Number of months a subject was a responder: Two months (IBS symptoms) [4]: 48 (18) n (%)
Number of months a subject was a responder: Zero months (Abdominal pain/discomfort) [4]: 73 (27) n (%)
Number of months a subject was a responder: Zero months (Abnormal bowel habits) [4]: 78 (29) n (%)
